The LD50 is the dose at which mortality reaches 50%. Low values mean a more toxic substance, high ones a less toxic substance. What is called ED50 is the dose at which the effect has come halfway, by size or by number of responders.

Where a name gives a salt, the structure may show the parent alone. Read-outs that look alike come from different tables or passages of the source. Bounds are passed on as bounds.

Data on twelve compounds can be found in patent US4088772A, “Methanodibenzocycloheptapyrroles” (E. I. Du Pont de Nemours and Company, priority 1975, dated 1978).

One series relates to female white mice. Put plainly: in vivo. The conditions noted are these: oral; for LD50 / Catatonia ED50 / Exploratory Loss Visual ED50 / Muscle Tone ED50 / Ptosis ED50 / Reflexes Grip ED50 / Reflexes Lift ED50 / Reflexes Pinna ED50 / Tremors ED50: Table 1; for LD50: 24-hour value; for Catatonia ED50 / Exploratory Loss Visual ED50 / Muscle Tone ED50 / Ptosis ED50 / Reflexes Grip ED50 / Reflexes Lift ED50 / Reflexes Pinna ED50 / Tremors ED50 / ED50: mice; for ED50: Mus musculus, po. The method, then: (§1) Groups of five Carworth CF1 S female mice, 16-20 g each, were fasted 16-22 hours before use. The mice were put in opaque plastic "shoe-box" cages 15-30 min. before injection, and then treated orally with 4, 12, 36, 108 and 324 mg/kg of the compound to be tested as a 13 mg/ml solution in 1% aqueous distilled water solution of methylcellulose (Methocel®). Each dose was given in a standard volume of 0.45 ml. Observations were made at 0.5, 2 and 24 hours after dosing. ED50 values were calculated for each parameter including death (LD50). The ED50 and LD50 values are the doses at which 50% of the naimals would be expected to respond.
(§2) The mouse is placed on a stainless steel wire mesh screen (8 × 12 inches, 3 mesh per inch, 1/4 inch mesh openings) "shoe-box" lid (1 inch high) and is observed for normal activities, such as nose movements, head movements with apparent visual examination of the area, and/or walking around on the screen. Absence of or marked depression of these activities for 5 seconds constitutes loss of exploratory activity.
(§3) The mouse is picked up by the tail and placed on the screen with its head facing the observer. Bilateral eyelid closure of 50% or more two seconds after placement is considered ptosis.
(§4) The mouse is placed with its front paws on the edge of a stainless steel "shoe-box" cover, 1 inch high, covered with adhesive tape. Failure to remove both paws from the cover's edge within 5 seconds constitutes catatonia.
(§5) The observer gently strokes the abdominal musculature of the mouse with thumb and forefinger. Flaccidity (or rarely, tenseness) is recorded.
(§6) The mouse is gently swung by the tail toward a horizontal 12 gauge wire tautly stretched 25 cm above the bench. After the mouse grasps the wire with its forepaws, its posterior end is held directly below the wire. A normal mouse grasps the wire with its forepaws and immediately lifts its hind limbs to the wire. Failure to grasp the wire with the forepaws in both trials constitutes loss of the grip reflex; failure to lift the hind limbs to grasp the wire with at least one hind paw within 5 seconds constitutes loss of the lift reflex.
(§7) The mouse is placed on the bar 10-20 cm horizontally and 9 cm vertically from a Galton whistle adjusted for 13 kc (5 mm on the whistle scale) and is subjected to several short bursts of sound.
(§8) An effective tranquilizer should induce little or no tremor response. […] Tremors include fine or coarse and intermittent or continuous tremors.

The test system of series [1] is phenylquinone-induced writhing. Put plainly: Phenylquinone writhing test (analgesia). The class given is in vivo, mouse (Carworth CF1 S female). The note with it: for ED50: Mus musculus, po, Table 1, mice; for Phenylquinone Analgesia ED50: Table 1, oral, mice. The source says:
This mouse test is predictive of analgesic response in humans. [E. Siegmund, R. Cadmus and G. Lee, Proc. Soc.
ED50 values were obtained graphically from the data.
In general terms: An intraperitoneal irritant provokes the stretching counted in writhing tests.

The nature of the next series: in vivo. The note with it: mouse, in vivo, po. As to the method: as §1, §2, §3, §4, §5, §6, §7, §8
Setting [2] is: read-out: Catatonia ED50, Table 1.
[3] abbreviates: read-out: Exploratory Loss Visual ED50, Table 1.
The mark [4] stands for this setting: read-out: Muscle Tone ED50, Table 1.
The mark [5] stands for this setting: read-out: Reflexes Grip ED50, Table 1.
Setting [6] is: read-out: Reflexes Lift ED50, Table 1.
The mark [7] stands for this setting: read-out: Reflexes Pinna ED50, Table 1.
The mark [8] stands for this setting: read-out: Catatonia ED50, Table III.
The mark [9] stands for this setting: read-out: Exploratory Loss Visual ED50, Table III.
Where [10] appears, read: read-out: Muscle Tone ED50, Table III.
Setting [11] is: read-out: Ptosis ED50, Table III.
[12] abbreviates: read-out: Reflexes Grip ED50, Table III.
The mark [13] stands for this setting: read-out: Reflexes Lift ED50, Table III.
Setting [14] is: read-out: Reflexes Pinna ED50, Table III.

Consider “5- and 11-Chloro-2-cyclohexylmethyl-2,3,8,12b-tetrahydro-1H-3a,8-methanodibenzo[3,4:6,7]cyclohepta[1,2-c]pyrrole [Example 44]”, for which, in the series on female white mice, the LD50 is listed as > 324 mg/kg, the “Catatonia ED50” value is 19 mg/kg, the “Exploratory Loss Visual ED50” value stood at 17 mg/kg and the “Muscle Tone ED50” value worked out at 12 mg/kg. Also, in the series with female white mice, the “Ptosis ED50” value was < 3 mg/kg, the “Reflexes Grip ED50” value is recorded as > 324 mg/kg, the “Reflexes Lift ED50” value was found to be 36 mg/kg and the “Reflexes Pinna ED50” value turned out to be 11 mg/kg. Moreover, the “Tremors ED50” value in the series with female white mice is on record as > 324 mg/kg.
Take “5- and 11-Chloro-2-methyl-2,3,8,12b-tetrahydro-1H- 3a,8-methanodibenzo[3,4:6,7]cyclohepta[1,2-c]pyrrole [Example 43]”: in the series with female white mice, the LD50 was 200 mg/kg, the “Catatonia ED50” value is 100 mg/kg, the “Exploratory Loss Visual ED50” value is recorded as 7 mg/kg and the “Muscle Tone ED50” value is given as 20 mg/kg. Further, in the series on female white mice, the “Ptosis ED50” value is 20 mg/kg, the “Reflexes Grip ED50” value worked out at 60 mg/kg, the “Reflexes Lift ED50” value was 20 mg/kg and the “Reflexes Pinna ED50” value is listed as 20 mg/kg. The “Tremors ED50” value in the series with female white mice turned out to be 36 mg/kg.
For the compound `c1ccc2c(c1)[C@@H]1C[C@@]3(CN(CC4CCCC4)C[C@H]23)c2ccccc21` (relative stereo) [Cyclopentylmethyl (free base), 2-Cyclopentylmethyl-2,3,8,12b-tetrahydro-1H-3a,8-methanodibenzo[3,4:6,7]cyclohepta[1,2-c]pyrrole], the ED50 in series [1] was < 130 mg/kg; in the series with female white mice (setting [2]), 7 mg/kg; with female white mice (setting [3]), < 3 mg/kg; with female white mice (setting [4]), < 3 mg/kg; in the series with female white mice (read-out: Ptosis ED50, Table 1), < 3 mg/kg; in the series with female white mice (setting [5]), 260 mg/kg. The ED50 with female white mice (setting [6]) was 4.5 mg/kg; in the series with female white mice (setting [7]) it was < 3 mg/kg. Further, in “in vivo”, the LD50 at 24 h was > 324 mg/kg.
As for `C1=CCCC(CN2C[C@@H]3c4ccccc4[C@@H]4C[C@@]3(C2)c2ccccc24)CC1` (relative stereo) [Example 33, 2-(4-Cycloheptenylmethyl)-2,3,8,12b-tetrahydro-1H-3a,8-methanodibenzo[3,4:6,7]cyclohepta[1,2-c]pyrrole], the ED50 in series [1] is 3.3 mg/kg; in “in vivo”, > 324 mg/kg; with female white mice (setting [2]), 11 mg/kg; with female white mice (setting [3]), 9 mg/kg; in the series with female white mice (setting [4]), 7 mg/kg; in the series with female white mice (read-out: Ptosis ED50, Table 1), 4 mg/kg. For the same compound, the figures for the ED50 in the series with female white mice (setting [5]), with female white mice (setting [6]) and in the series on female white mice (setting [7]) were > 324 mg/kg, 19 mg/kg and 37 mg/kg, respectively. The LD50 at 24 h in the series “in vivo” is > 324 mg/kg.
Take `c1ccc2c(c1)[C@@H]1C[C@@]3(CN(CC4CCCCCCC4)C[C@H]23)c2ccccc21` (relative stereo) [Example 34, 2-Cyclooctylmethyl-2,3,8,12b-tetrahydro-1H-3a,8-methanodibenzo[3,4:6,7]cyclohepta[1,2-c]pyrrole]: the ED50 in series [1] is 6 mg/kg; in “in vivo”, > 324 mg/kg; in the series on female white mice (setting [2]), 23 mg/kg; in the series with female white mice (setting [3]), 40 mg/kg; in the series on female white mice (setting [4]), 21 mg/kg; in the series with female white mice (read-out: Ptosis ED50, Table 1), 4 mg/kg. In addition, the ED50 was > 324 mg/kg in the series with female white mice (setting [5]), 62 mg/kg with female white mice (setting [6]) and 97 mg/kg in the series with female white mice (setting [7]). Further, the LD50 at 24 h in “in vivo” was > 324 mg/kg.
For `O=[N+]([O-])c1ccc2c(c1)[C@]13C[C@H]2c2ccccc2[C@H]1CN(CC1CCCC1)C3` (relative stereo) [Example 63, 5-Nitro-2-cyclopentylmethyl-2,3,8,12b-tetrahydro-1H-3a,8-methanodibenzo[3,4:6,7]cyclohepta[1,2-c]pyrrole Hydrochloride], in the series “in vivo”, the LD50 at 24 h is > 324 mg/kg. In addition, the ED50 in the series with female white mice (setting [8]) was 200 mg/kg; with female white mice (setting [9]) it was 12 mg/kg; in the series with female white mice (setting [10]) it was 36 mg/kg; in the series on female white mice (setting [11]), 7 mg/kg; in the series on female white mice (setting [12]), > 324 mg/kg; with female white mice (setting [13]) it was 100 mg/kg. Moreover, in the series on female white mice (setting [14]), the ED50 came to 20 mg/kg.
Consider `Cc1ccc2c(c1)[C@]13C[C@H]2c2ccccc2[C@H]1CN(CC1CCCC1)C3` (relative stereo) [Example 89, 5-Methyl-2-cyclopentylmethyl-2,3,8,12b-tetrahydro-1H-3a,8-methanodibenzo[3,4:6,7]cyclohepta[1,2-c]pyrrole], for which the LD50 at 24 h in “in vivo” was > 81 mg/kg. In addition, the ED50 in the series with female white mice (setting [8]) is 50 mg/kg; with female white mice (setting [9]) it was 9 mg/kg; with female white mice (setting [10]) it was 50 mg/kg; with female white mice (setting [11]) it was 15 mg/kg; with female white mice (setting [12]) it was < 81 mg/kg; with female white mice (setting [13]), 25 mg/kg. Further, the ED50 in the series on female white mice (setting [14]) amounted to 15 mg/kg.
For `C[N+]1([O-])C[C@@H]2c3ccccc3[C@@H]3C[C@@]2(C1)c1ccccc13` (relative stereo) [Methyl-N-oxide], the ED50 in “in vivo” came out at 36 mg/kg; in the series with female white mice (setting [2]) it was 60 mg/kg; in the series with female white mice (setting [3]), 60 mg/kg; in the series with female white mice (setting [4]), 100 mg/kg; in the series on female white mice (read-out: Ptosis ED50, Table 1), 36 mg/kg; in the series with female white mice (setting [5]), 200 mg/kg. Besides, the values for the ED50 with female white mice (setting [6]) and with female white mice (setting [7]) were 36 mg/kg and 60 mg/kg, respectively. For the same compound, the LD50 at 24 h in “in vivo” is > 324 mg/kg.
As for `c1ccc2c(c1)C1CC3(CN(CC4CCCC4)CC23)c2ccccc21` (single isomer, unassigned; (+)) [(+)-Cyclopentylmetnyl, 2-Cyclopentylmethyl-2,3,8,12b-tetrahydro-trans-1H,-3a,8-methanodibenzo[3,4:6,7]cyclohepta[1,2-c]pyrrole], the “Phenylquinone Analgesia ED50” value in series [1] turned out to be 24 mg/kg. Besides, in the series with female white mice, the LD50 is on record as > 324 mg/kg, the “Catatonia ED50” value is on record as 36 mg/kg, the “Exploratory Loss Visual ED50” value is given as 36 mg/kg and the “Muscle Tone ED50” value was 60 mg/kg. Besides, in the series on female white mice, the “Ptosis ED50” value stood at 20 mg/kg, the “Reflexes Grip ED50” value was 200 mg/kg, the “Reflexes Lift ED50” value stood at 60 mg/kg and the “Reflexes Pinna ED50” value was 20 mg/kg. The “Tremors ED50” value with female white mice is reported as > 324 mg/kg.
Compound `CN1CC2c3cc(Cl)ccc3C3CC2(C1)c1ccccc13.Cl` (stereo not drawn) [Example 80, 11-Chloro-2-methyl-2,3,8,12b-tetrahydro-1H-3a,8-methanodibenzo[3,4:6,7]cyclohepta[1,2-c]pyrrole Hydrochloride] came in with an LD50 at 24 h in the series “in vivo” of 200 mg/kg. In addition, the ED50 in the series with female white mice (setting [8]) worked out at 100 mg/kg; in the series on female white mice (setting [9]) it was 7 mg/kg; with female white mice (setting [10]), 20 mg/kg; in the series with female white mice (setting [11]), 20 mg/kg; in the series on female white mice (setting [12]), 60 mg/kg; in the series with female white mice (setting [13]), 20 mg/kg. Moreover, in the series with female white mice (setting [14]), the ED50 is 20 mg/kg.
As to `Cl.Clc1ccc2c(c1)C1CN(CC3CCCCC3)CC13CC2c1ccccc13` (stereo not drawn) [Example 81, 11-Chloro-2-cyclohexylmethyl-2,3,8,12b-tetrahydro-1H-3a,8-methanodibenzo[3,4:6,7]cyclohepta[1,2-c]-pyrrole Hydrochloride], the LD50 at 24 h in “in vivo” was > 324 mg/kg. In addition, the ED50 in the series with female white mice (setting [8]) was 19 mg/kg; with female white mice (setting [9]), 17 mg/kg; in the series on female white mice (setting [10]) it was 12 mg/kg; in the series on female white mice (setting [11]), < 3 mg/kg; in the series on female white mice (setting [12]), > 324 mg/kg; in the series with female white mice (setting [13]), 36 mg/kg. In addition, the ED50 in the series with female white mice (setting [14]) was found to be 11 mg/kg.
“Nitro-2-methyl-2,3,8,12b-tetrahydro-1H-3a,8-methanodibenzo[3,4:6,7]cyclohepta[1,2-c]pyrrole Hydrochloride [Example 57]”: the “Phenylquinone Analgesia ED50” value in series [1] is listed as 5 mg/kg. In the series on female white mice, the LD50 was 200 mg/kg, the “Catatonia ED50” value is > 324 mg/kg, the “Exploratory Loss Visual ED50” value was found to be 20 mg/kg and the “Muscle Tone ED50” value stood at 60 mg/kg. Also, in the series with female white mice, the “Ptosis ED50” value was 12 mg/kg, the “Reflexes Grip ED50” value is > 324 mg/kg, the “Reflexes Lift ED50” value is on record as > 324 mg/kg and the “Reflexes Pinna ED50” value was found to be 12 mg/kg. Also, the “Tremors ED50” value in the series with female white mice is 100 mg/kg.
